Results reported in patent US20260109721A1, “IONIZABLE CATIONIC LIPIDS INCORPORATING SILICON: SYNTHESIS AND LNP FORMULATION” (priority 2023, published 2026).

What was measured:
[1] = LNP size, PDI and zeta potential by Dynamic Light Scattering (Method A); type: physicochemical; conditions: LNP formulated with the lipid, DLS
Procedure, shortened: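 LNPs formed by microfluidic mixing of ethanolic lipid mix with Luc mRNA in 10 mM citrate pH 4.0, about 12 ml/min total flow at 3:1 ratio. Particle size, PDI and zeta potential then measured by dynamic light scattering.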

[2] = test system: HeLa cells; assay: Transfection efficiency with Luciferase (SecNLuc) mRNA, Nano-Glo assay (Method A); type: cell-based; conditions: Luc mRNA, 24 h, luminescence; for Transfection 10 ng mRNA: 10 ng mRNA/well; for Transfection 50 ng mRNA: 50 ng mRNA/well; for Transfection 100 ng mRNA: 100 ng mRNA/well
Procedure, shortened: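 LNPs formulated by Method A carried SecNLuc mRNA at 100, 50 or 10 ng/well onto HeLa cells at 80% confluence, in triplicate. After 24 h, secreted NanoLuc in the medium was measured by Nano-Glo luminescence about 3 min after reagent addition.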

SMILES: CCCCC/C=C\C/C=C\CCCCCCCCOC(CCCCCCC/C=C\C/C=C\CCCCC)O[Si](C)(C)OCCCCCCN(CCO)CCO (stereo not drawn) [Example 48, (23Z,26Z)-13-((8Z,11Z)-heptadeca-8,11-dien-1-yl)-3-(2-hydroxyethyl)-11,11-dimethyl-10,12,14-trioxa-3-aza-11-siladotriaconta-23,26-dien-1-ol]
- PDI [1]: 0.052
- Size (nm) [1]: 149.6 nm
- Zeta potential (mV) [1]: −7.501 mV
- Transfection 10 ng mRNA [2]: 5.52E+02
- Transfection 50 ng mRNA [2]: 1.65E+03
- Transfection 100 ng mRNA [2]: 1.82E+03

SMILES: CCCCC/C=C\C/C=C\CCCCCCCC(OCCCCCCCC/C=C\CCCCCCCC)O[Si](C)(C)OCCCCCCN(CCO)CCO (stereo not drawn) [Example 45, (Z)-13-((8Z,11Z)-heptadeca-8,11-dien-1-yl)-3-(2-hydroxyethyl)-11,11-dimethyl-10,12,14-trioxa-3-aza-11-siladotriacont-23-en-1-ol]
- PDI [1]: 0.043
- Size (nm) [1]: 136.8 nm
- Zeta potential (mV) [1]: −8.85 mV
- Transfection 10 ng mRNA [2]: 1.80E+05
- Transfection 50 ng mRNA [2]: 2.42E+06
- Transfection 100 ng mRNA [2]: 7.94E+06

SMILES: CCCCC/C=C\C/C=C\CCCCCCCCOC(CCCCCCC/C=C\C/C=C\CCCCC)O[Si](C)(C)OCCCCCCN1CCN(CCCCCCO[Si](C)(C)OC(CCCCCCC/C=C\C/C=C\CCCCC)OCCCCCCCC/C=C\C/C=C\CCCCC)CC1 (stereo not drawn) [Example 70, 1,4-bis((20Z,23Z)-10-((8Z,11Z)-heptadeca-8,11-dien-1-yl)-8,8-dimethyl-7,9,11-trioxa-8-silanonacosa-20,23-dien-1-yl)piperazine]
- PDI [1]: 0.061
- Size (nm) [1]: 171.4 nm
- Zeta potential (mV) [1]: −10.47 mV
- Transfection 10 ng mRNA [2]: 6.46E+02
- Transfection 50 ng mRNA [2]: 5.40E+03
- Transfection 100 ng mRNA [2]: 2.07E+04

SMILES: CCCCCCCC/C=C\CCCCCCCCOC(CCCCCCCCCCCCCCC)O[Si](C)(C)OCCCCCCN(CCO)CCO (stereo not drawn) [Example 41, (Z)-3-(2-hydroxyethyl)-11,11-dimethyl-13-pentadecyl-10,12,14-trioxa-3-aza-11-siladotriacont-23-en-1-ol]
- PDI [1]: 0.031
- Size (nm) [1]: 144.2 nm
- Zeta potential (mV) [1]: −8.54 mV
- Transfection 10 ng mRNA [2]: 3.11E+05
- Transfection 50 ng mRNA [2]: 3.64E+06
- Transfection 100 ng mRNA [2]: 1.03E+07

SMILES: CCCCCCCC/C=C\CCCCCCCCOC(=O)C(C)(C)CC(OCCCCCCCC/C=C\CCCCCCCC)O[Si](C)(C)OCCCCCCN(CCO)CCO (stereo not drawn) [Example 84, (Z)-octadec-9-en-1-yl 1-hydroxy-3-(2-hydroxyethyl)-11,11,15,15-tetramethyl-13-(((Z)-octadec-9-en-1-yl)oxy)-10,12-dioxa-3-aza-11-silahexadecan-16-oate]
- PDI [1]: 0.15
- Size (nm) [1]: 71.7 nm
- Zeta potential (mV) [1]: −16.66 mV
- Transfection 10 ng mRNA [2]: 3.08E+03
- Transfection 50 ng mRNA [2]: 5.69E+04
- Transfection 100 ng mRNA [2]: 2.00E+05

SMILES: CCCCC/C=C\C/C=C\CCCCCCCCOC(CCCCCCC/C=C\C/C=C\CCCCC)O[Si](C)(C)OCCCCCCN(C)Cc1cn(C2[C@H](O)O[C@H](CO)[C@@H](O)[C@@H]2O)nn1 (stereo partly drawn) [Example 68, (4R,5S,6R)-3-(4-((22Z,25Z)-12-((8Z,11Z)-heptadeca-8,11-dien-1-yl)-2,10,10-trimethyl-9,11,13-trioxa-2-aza-10-silahentriaconta-22,25-dien-1-yl)-1H-1,2,3-triazol-1-yl)-6-(hydroxymethyl)tetrahydro-2H-pyran-2,4,5-triol]
- PDI [1]: 0.081
- Size (nm) [1]: 109.9 nm
- Zeta potential (mV) [1]: −6.380 mV
- Transfection 10 ng mRNA [2]: 2.74E+02
- Transfection 50 ng mRNA [2]: 1.30E+03
- Transfection 100 ng mRNA [2]: 7.84E+03

SMILES: CCCCC/C=C\C/C=C\CCCCCCCCOC(CCCCCN(CCO)CCO)O[Si](C)(C)OCCCCCCCC/C=C\C/C=C\CCCCC (stereo not drawn) [Example 39, (21Z,24Z)-3-(2-hydroxyethyl)-11,11-dimethyl-9-(((9Z,12Z)-octadeca-9,12-dien-1-yl)oxy)-10,12-dioxa-3-aza-11-silatriaconta-21,24-dien-1-ol]
- PDI [1]: 0.072
- Size (nm) [1]: 170.4 nm
- Zeta potential (mV) [1]: −9.414 mV
- Transfection 10 ng mRNA [2]: 1.46E+05
- Transfection 50 ng mRNA [2]: 1.40E+06
- Transfection 100 ng mRNA [2]: 4.78E+06

SMILES: CCCCC/C=C\C/C=C\CCCCCCCCOC(CCCCCCC/C=C\C/C=C\CCCCC)O[Si](C)(C)OCCCCCCN(CCO)CCN(CCO)CCCCCCO[Si](C)(C)OC(CCCCCCC/C=C\C/C=C\CCCCC)OCCCCCCCC/C=C\C/C=C\CCCCC (stereo not drawn) [Example 71, (26Z,29Z)-16-((8Z,11Z)-heptadeca-8,11-dien-1-yl)-3-((20Z,23Z)-10-((8Z,11Z)-heptadeca-8,11-dien-1-yl)-8,8-dimethyl-7,9,11-trioxa-8-silanonacosa-20,23-dien-1-yl)-6-(2-hydroxyethyl)-14,14-dimethyl-13,15,17-trioxa-3,6-diaza-14-silapentatriaconta-26,29-dien-1-ol]
- PDI [1]: 0.103
- Size (nm) [1]: 166.6 nm
- Zeta potential (mV) [1]: −11.09 mV
- Transfection 10 ng mRNA [2]: 3.24E+04
- Transfection 50 ng mRNA [2]: 9.78E+05
- Transfection 100 ng mRNA [2]: 5.19E+06

SMILES: CCCCCCCC/C=C\CCCCCCCCOC(=O)C(C)(C)CC(OCCCCCCCC/C=C\CCCCCCCC)O[Si](C)(C)OCCCCCCN1CCOCC1 (stereo not drawn) [Example 85, (Z)-octadec-9-en-1-yl 4-((dimethyl((6-morpholinohexyl)oxy)silyl)oxy)-2,2-dimethyl-4-(((Z)-octadec-9-en-1-yl)oxy)butanoate]
- PDI [1]: 0.1
- Size (nm) [1]: 96.37 nm
- Zeta potential (mV) [1]: −14.54 mV
- Transfection 10 ng mRNA [2]: 4.67E+00
- Transfection 50 ng mRNA [2]: 3.23E+01
- Transfection 100 ng mRNA [2]: 8.37E+01

SMILES: CCCCC/C=C\C/C=C\CCCCCCCCOC(CCCCCCC/C=C\C/C=C\CCCCC)O[Si](C)(C)OCCCCCCN(C)CCCCO (stereo not drawn) [Example 60, (25Z,28Z)-15-((8Z,11Z)-heptadeca-8,11-dien-1-yl)-5,13,13-trimethyl-12,14,16-trioxa-5-aza-13-silatetratriaconta-25,28-dien-1-ol]
- PDI [1]: 0.041
- Size (nm) [1]: 201.0 nm
- Zeta potential (mV) [1]: −7.785 mV
- Transfection 10 ng mRNA [2]: 1.76E+05
- Transfection 50 ng mRNA [2]: 1.12E+06
- Transfection 100 ng mRNA [2]: 1.81E+06

SMILES: CCCCCCCC/C=C\CCCCCCCCOC(=O)C(C)(C)CCC(OCCCCCCCC/C=C\CCCCCCCC)O[Si](C)(C)OCCCCCCN1CCOCC1 (stereo not drawn) [Example 95, (Z)-octadec-9-en-1-yl 5-((dimethyl((6-morpholinohexyl)oxy)silyl)oxy)-2,2-dimethyl-5-(((Z)-octadec-9-en-1-yl)oxy)pentanoate]
- PDI [1]: 0.15
- Size (nm) [1]: 90.33 nm
- Zeta potential (mV) [1]: −20.80 mV
- Transfection 10 ng mRNA [2]: 1.22E+02
- Transfection 50 ng mRNA [2]: 5.37E+02
- Transfection 100 ng mRNA [2]: 9.82E+02

SMILES: CCCCCCCC/C=C\CCCCCCCC(OCC(CCCCCC)CCCCCCCC)O[Si](C)(C)OCCCCCCN(CCO)CCO (stereo not drawn) [Example 50, (Z)-13-(heptadec-8-en-1-yl)-16-hexyl-3-(2-hydroxyethyl)-11,11-dimethyl-10,12,14-trioxa-3-aza-11-silatetracosan-1-ol]
- PDI [1]: 0.022
- Size (nm) [1]: 153.8 nm
- Zeta potential (mV) [1]: −10.38 mV
- Transfection 10 ng mRNA [2]: 5.85E+04
- Transfection 50 ng mRNA [2]: 2.12E+06
- Transfection 100 ng mRNA [2]: 8.19E+06

SMILES: CCCCCCCC/C=C\CCCCCCCC(OCC(CCCCCCCC)SCCCCC)O[Si](C)(C)OCCCCCCN(CCO)CCO (stereo not drawn) [Example 72, (Z)-13-(heptadec-8-en-1-yl)-3-(2-hydroxyethyl)-11,11-dimethyl-16-octyl-10,12,14-trioxa-17-thia-3-aza-11-siladocosan-1-ol]
- PDI [1]: 0.17
- Size (nm) [1]: 84.37 nm
- Zeta potential (mV) [1]: −14.24 mV
- Transfection 10 ng mRNA [2]: 2.05E+03
- Transfection 50 ng mRNA [2]: 8.79E+04
- Transfection 100 ng mRNA [2]: 3.60E+05
